These results are taken from US20260125730A1, “A NEW INDUCER FOR METHANOL-FREE PICHIA PASTORIS EXPRESSION SYSTEM” (priority 2022, published 2026).

For this test, the system named is AOX1 promoter. The test is described as follows: Induction of the AOX1 promoter in recombinant P. pastoris cells carrying the azurin gene; western blot of culture broth with anti-azurin antibody. The test is classed as cell-based, Pichia pastoris. From the text:
FIG. 1B. Relative expression levels of azurin protein in culture broths
Recombinant yeast cells were obtained by performing steps A, B and C in the study in which the recombinant DNA obtained by Inserting the azurin gene of Pseudomonas aeruginosa into pPICZαA was integrated into the genome of P. pastoris X33 strain (https://pubmed.ncbi.nlm.nih.gov/33346686/).
In this Invention, recombinant Pichia pastoris cells which carry the “azurin protein” gene (as a reference gene) from Pseudomonas aeruginosa in their genomes and can perform the extracellular production of this protein were used.
Said protein gene is located in the downstream of the AOX1 promoter in the genome of P. pastoris cells. If the AOX promoter is induced, expression of this gene inserted into the genome can be achieved. […] Methanol or farnesol was added to the culture medium In predetermined amounts every 24 hours.
Background: Immunoblotting shows a protein as a band on a membrane.

For the compound `CO` [methanol], the “protein (azurin) production on induction of the promoter” value (methanol 0.5% v/v (control inducer) added every 24 hours, sorbitol as carbon source, 30° C., 280 rpm, 72 hours, FIG. 1A) is reported as “protein production”.

For `CC(C)=CCCC(C)=CCCC(C)=CCO` [farnesol], the “protein expression level among the farnesol groups” value (240 farnesol group compared with 120 and 480 μL/L, 72 hours, FIG. 1B) is listed as “highest protein expression level”. Also, the “protein expression level relative to the 0.5% (v/v) methanol-induced group” value (240 farnesol group, P<0.05, FIG. 1B) is listed as “higher than that of the 0.5% (v/v) methanol-induced group”. Also, where the note is “farnesol 120 μL/L, 240 μL/L and 480 μL/L added every 24 hours, sorbitol as carbon source, 30° C., 280 rpm, 72 hours, FIG. 1A”, the “extracellular protein (azurin) production on induction of the promoter” value is listed as “protein production also occurred”.
